Data as given in patent publication US20230128252A1, “PHARMACEUTICAL COMPOSITIONS” (Shenzhen Pharmacin Co., Ltd., priority 2020, published 2023).
In brackets after ≈: the same amount, converted by molar mass. Where two headings read alike, the source gives them in different places.

Columns and labels:
[1] = biological target: Kv1.3 channels in human Jurkat E6-1 cells (Homo sapiens, UniProt P22001); assay: Inhibition of Kv1.3 channel current, voltage ramp protocol; details: for Inhibition ratio of Kv1.3 channel current in Jurkat E6-1 cells: n 3
[2] = Solubility of clofazimine in various solvents; details: 25 °C, thermodynamic from solid
Description: Clofazimine was added to various solvents (2-5 mL) in a 10 mL glass vial, at 25° C., with stirring. […] This cycle was repeated until no further dissolution was observable. The suspension was then centrifuged and the supernatant filtered by microfiltration.

[3] = cited from earlier work; for time to reach peak plasma concentration (Tmax): oral administration
[4] = test system: imiquimod-induced psoriasis like mouse model; assay: imiquimod-induced psoriasis like mouse model, PASI method; format: in vivo, C57BL/6J mice; details: Formulations 1-3, topical
Excerpt: Fifty C57BL/6J mice were random divided into 5 groups, naïve group, model group, Formulation 1-3 groups. All mice were shaved on the back. Naïve group was the negative group and as the blank control. The other four groups were locally applied with 5% imiquimod cream (sold under the tradename Aldara®) once a day for a week. […] In the last three days, the changes of skin lesions were observed and evaluated by PASI method. PASI method: the scores of erythema, scale and infiltration thickening in the skin lesions were scored respectively, and the sum of the three scores was the total score. PASI scoring standard: 0, none; 1, mild; 2, moderate; 3, severe; 4, extremely severe.

[5] = pharmacokinetics and tissue distribution after single-dose topical application in minipigs; format: in vivo, Bama minipigs; details: Formulation 11 (0.03%) single topical application
Description: Studies were performed to evaluate the pharmacokinetics and tissue distribution after a single-dose topical application of Formulation 11 (clofazimine 0.03%) in Bama minipigs. 24 Bama minipigs were divided into 6 groups (n=4), each group of minipigs received a single topical application of Formulation 11 (0.03%) at a dose of 1.5 mg ointment/cm^2. Blood samples, epidermis, dermis, subcutaneous tissue and subcutaneous muscle were collected at 0.5, 4, 24, 48, 72 and 96 hours (one time point for one group) after drug application. A validated LC-MS/MS method was used to determine the concentration of clofazimine in plasma, epidermis, dermis, subcutaneous tissues and subcutaneous muscle and the pharmacokinetic parameters were calculated (the standard curve range of clofazimine is 0.0100˜10.0 ng/mL).

[6] = test system: IL-2 secretion of activated Jurkat cells; assay: Inhibition of IL-2 secretion of activated Jurkat cells (ELISA); format: cell-based; details: 1 μM, 3 μM, and 10 μM in DMSO; PMA+PHA activated; 24 h (FIG. 11)
Description: In each group, Jurkat cells were incubated with corresponding formulation. After 24 h, the secretion of IL-2 was detected by ELISA.

[7] = Compatibility of clofazimine and excipients (60° C., 3 days, HPLC); format: physicochemical; details: for Degradation total impurities: 60° C. for 3 days
Description: Clofazimine was dissolved into different excipients with different mass ratios, then the mixture was placed in the condition of 60° C. for 3 days. The total degradation impurities were measured by HPLC and summarized below in Table 25. The excipients were classified by the results as below.

Chain of Kv1.3 channels in human Jurkat E6-1 cells (P22001 whole entry): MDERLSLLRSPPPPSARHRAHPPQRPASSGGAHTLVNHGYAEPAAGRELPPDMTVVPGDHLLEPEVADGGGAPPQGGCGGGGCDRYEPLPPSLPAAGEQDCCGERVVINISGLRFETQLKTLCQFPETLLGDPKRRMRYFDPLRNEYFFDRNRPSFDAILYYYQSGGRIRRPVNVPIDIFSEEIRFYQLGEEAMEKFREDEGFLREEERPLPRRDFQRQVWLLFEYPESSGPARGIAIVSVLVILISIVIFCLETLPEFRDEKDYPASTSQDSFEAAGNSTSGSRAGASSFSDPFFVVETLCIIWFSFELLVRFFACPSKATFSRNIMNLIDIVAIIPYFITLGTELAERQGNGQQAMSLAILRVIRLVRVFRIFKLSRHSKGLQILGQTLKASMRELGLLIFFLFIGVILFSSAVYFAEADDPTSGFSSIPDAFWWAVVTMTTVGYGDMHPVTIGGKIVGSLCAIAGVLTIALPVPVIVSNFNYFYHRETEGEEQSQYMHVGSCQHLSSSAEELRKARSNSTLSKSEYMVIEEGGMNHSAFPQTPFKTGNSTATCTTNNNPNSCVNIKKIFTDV

In the case of `CC(C)/N=c1\cc2n(-c3ccc(Cl)cc3)c3ccccc3nc-2cc1Nc1ccc(Cl)cc1` [Clofazimine, N,5-bis(4-chlorophenyl)-3-propan-2-ylimino phenazin-2-amine], the IC50 [1] is reported as 3.3 µM, the “Inhibition ratio of Kv1.3 channel current in Jurkat E6-1 cells” value (shortened to “Inhibition ratio”) ([1]; 0.3 μM) is reported as 7.09 ± 0.86% and the “Inhibition ratio” value ([1]; 1 μM) is reported as 18.89 ± 3.38%. For the same molecule, the “Inhibition ratio” value ([1]; 3 μM) was 46.84 ± 4.55%, the “Inhibition ratio” value ([1]; 10 μM) was 70.11 ± 2.91% and the “Inhibition ratio” value ([1]; 20 μM) was 83.62 ± 1.99%. For the same molecule, the solubility at 24 h ([2]; organic solvent or mixture) was 7480 µg/mL (≈ 15.8 mM), the solubility at 24 h ([2]; solvent, oil or lipid, Solubility, Castor oil) was 11000 µg/mL (≈ 23.3 mM) and the solubility at 24 h ([2]; solvent, oil or lipid, Solubility, Coconut oil) was 5100 µg/mL (≈ 10.8 mM). For the same molecule, the solubility at 24 h ([2]; solvent, oil or lipid, Solubility, Corn oil) was 5800 µg/mL (≈ 12.3 mM), the solubility at 24 h ([2]; solvent, oil or lipid, Solubility, Glyceryl monooleate) was 8860 µg/mL (≈ 18.7 mM) and the solubility at 24 h ([2]; solvent, oil or lipid, Solubility, Isopropyl myristate) was 8510 µg/mL (≈ 18 mM). The solubility at 24 h ([2]; solvent, oil or lipid, Solubility, Soybean oil) was 5100 µg/mL (≈ 10.8 mM), the solubility at 24 h ([2]; solvent, organic solvent or mixture, Solubility, Ethanol) was 950 µg/mL (≈ 2.01 mM) and the solubility at 24 h ([2]; solvent, organic solvent or mixture, Solubility, Glycerol) was 490 µg/mL (≈ 1.04 mM). It also gave a solubility at 24 h ([2]; solvent, organic solvent or mixture, Solubility, Labrasol) of 25400 µg/mL (≈ 53.6 mM), a solubility at 24 h ([2]; solvent, organic solvent or mixture, Solubility, Laurocapram) of 46700 µg/mL (≈ 98.7 mM) and a solubility at 24 h ([2]; solvent, organic solvent or mixture, Solubility, Oleic acid polyethylene glycol glyceride) of 12200 µg/mL (≈ 25.8 mM). It also gave a solubility at 24 h ([2]; solvent, organic solvent or mixture, Solubility, PEG 400, 25° C.) of 9510 µg/mL (≈ 20.1 mM), a solubility at 24 h ([2]; solvent, organic solvent or mixture, Solubility, Polyglycerol fatty acid ester) of 4960 µg/mL (≈ 10.5 mM) and a solubility at 24 h ([2]; solvent, organic solvent or mixture, Solubility, Polyoxyethylene hydrogenated castor oil) of 8670 µg/mL (≈ 18.3 mM). For the same molecule, the solubility at 24 h ([2]; solvent, organic solvent or mixture, Solubility, Propane 1,2-diol) was 420 µg/mL (≈ 0.887 mM), the solubility at 24 h ([2]; solvent, organic solvent or mixture, Solubility, Transcutol) was 21600 µg/mL (≈ 45.5 mM) and the solubility at 24 h ([2]; solvent, organic solvent or mixture, Solubility, Tween 20, 25° C.) was 7400 µg/mL (≈ 15.6 mM). For the same molecule, the solubility at 24 h ([2]; solvent, organic solvent or mixture, Solubility, Tween 80, 25° C.) was 10100 µg/mL (≈ 21.3 mM), the “time to reach peak plasma concentration (Tmax)” value ([3]; fasted state) was 12 h and the “time to reach peak plasma concentration (Tmax)” value ([3]; fed conditions) was 8 h. For the same molecule, the absorption rate ([3]; oral, FDA Label information) was 45-62%, the “treatment effect on the imiquimod-induced psoriasis like mouse model” value [4] was “confirmed the treatment effect” and the “median time to peak dermal concentration” value [5] was “about 4 h”. For the same molecule, the “median time to peak epidermal concentration” value [5] was “about 0.5 h”, the “median time to peak subcutaneous muscle concentration” value [5] was “about 0.5 h” and the “median time to peak subcutaneous tissues concentration” value [5] was “about 4 h”. For the same molecule, the tissue distribution [5] was “mainly distributed in the epidermis and dermis, and not absorbed into blood”, the “secretion of IL-2” value [6] was “significantly inhibited” and the “chemical stability (hydrolysis, oxidation)” value [7] was “easily hydrolyzed and oxidized”. The Degradation total impurities ([7]; Campmul MCM (1:100)) was over 1%, the Degradation total impurities ([7]; Campmul MCM + water (1:100:800)) was over 1% and the Degradation total impurities ([7]; Gelucire 44/14 (1:100)) was over 1%. The Degradation total impurities ([7]; Oleic acid (1:50)) was 0.5-1%, the Degradation total impurities ([7]; Oleic acid + labrasol (1:50:100)) was over 1% and the Degradation total impurities ([7]; PEG 400 (1:400)) was over 1%. The Degradation total impurities ([7]; PEG 3350 (1:400)) was 0-0.5%, the Degradation total impurities ([7]; RH 40 (1:100)) was 0-0.5% and the Degradation total impurities ([7]; Stearyl alcohol (1:70)) was 0-0.5%. The Degradation total impurities ([7]; Tefose 63 (1:100)) was over 1%, the Degradation total impurities ([7]; Vaseline (1:3000)) was 0-0.5% and the Degradation total impurities ([7]; glycerin (1:2500)) was 0-0.5%. The Degradation total impurities ([7]; labrasol (1:100)) was 0.5-1%, the Degradation total impurities ([7]; labrasol + carbomer (1:100:5)) was 0.5-1% and the Degradation total impurities ([7]; labrasol + water (1:100:800)) was 0.5-1%. The Degradation total impurities ([7]; liquid paraffin (1:1000)) was 0-0.5%, the Degradation total impurities ([7]; oleic acid + labrasol + water (1:50:100:800)) was over 1% and the Degradation total impurities ([7]; propyl glycol (1:2500)) was 0-0.5%. The Degradation total impurities ([7]; transcutol + tween 80 (1:100:100)) was over 1% and the Degradation total impurities ([7]; transcutol + water (1:100:800)) was 0.5-1%.
